Read-outs that look alike come from different tables or passages of the source.
Assay: APP processing: AlphaLisa assay of secreted Aβ40 and Aβ42 from SP4CT cells
Assay type: cell-based
Conditions: Homo sapiens, SH-SY5Y cells expressing amyloid β protein (SP4CT cells)
In short: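 Secreted Aβ40 and Aβ42 were quantified separately by AlphaLisa luminescence, pairing streptavidin donor beads bearing biotinylated 4G8 with G210 or 12F4 acceptor beads. Samples were conditioned media from compound-treated SH-SY5Y cells expressing amyloid β protein (SP4CT).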

[1] = read-out: IC50, inhibition of production of Aβ40 peptide
[2] = read-out: IC50, inhibition of production of Aβ42 peptide

| Compound | IC50 [1] [nM] | IC50 [2] [nM] |
| --- | --- | --- |
| CCn1nc(Oc2ccc(C(F)(F)F)cc2)c(Cl)c1-c1cccc(C(C)(C)NS(=O)(=O)CC(F)(F)F)c1 [Example 113, N-[2-(3-{4-chloro-1-ethyl-3-[4-(trifluoromethyl)phenoxy]-1H-pyrazol-5-yl}phenyl)propan-2-yl]-2,2,2-trifluoroethanesulfonamide] | < 200 | < 200 |
| CCn1nc(-c2cccc(C(C)(C)NS(=O)(=O)CC(F)(F)F)c2)c(Br)c1Oc1ccc(C(F)(F)F)cc1 [Example 115, N-[2-(3-{4-bromo-1-ethyl-5-[4-(trifluoromethyl)phenoxy]-1H-pyrazol-3-yl}phenyl)propan-2-yl]-2,2,2-trifluoroethanesulfonamide] | < 200 | < 200 |
| CCn1nc(-c2cccc(C(C)(C)NS(=O)(=O)CC(F)(F)F)c2)c(I)c1Oc1ccc(C(F)(F)F)cc1 [Example 116, N-[2-(3-{1-ethyl-4-iodo-5-[4-(trifluoromethyl)phenoxy]-1H-pyrazol-3-yl}phenyl)propan-2-yl]-2,2,2-trifluoroethanesulfonamide] | < 200 | < 200 |
| CCn1nc(-c2cccc(C(C)(C)NS(=O)(=O)CC(F)(F)F)c2)c(C#N)c1Oc1ccc(C(F)(F)F)cc1 [Example 117, N-[2-(3-{4-cyano-1-ethyl-5-[4-(trifluoromethyl)phenoxy]-1H-pyrazol-3-yl}phenyl)propan-2-yl]-2,2,2-trifluoroethanesulfonamide] | < 200 | < 200 |
| CCn1nc(-c2cccc(C(C)(C)NS(=O)(=O)CC(F)(F)F)c2)c(C#Cc2ccccc2)c1Oc1ccc(C(F)(F)F)cc1 [Example 119, N-[2-(3-{1-ethyl-4-(phenylethynyl)-5-[4-(trifluoromethyl)phenoxy]-1H-pyrazol-3-yl}phenyl)propan-2-yl]-2,2,2-trifluoroethanesulfonamide] | < 200 | < 200 |
| CCn1nc(-c2cncc(C3(NS(=O)(=O)CC(F)(F)F)COC3)c2)cc1Oc1ccc(C(F)(F)F)cc1 [Example 126, N-[3-(5-{1-ethyl-5-[4-(trifluoromethyl)phenoxy]-1H-pyrazol-3-yl}pyridine-3-yl)oxetan-3-yl]-2,2,2-trifluoroethanesulfonamide] | < 200 | < 200 |
| CCn1nc(-c2cncc(C3(NS(=O)(=O)NCC(F)(F)F)COC3)c2)cc1Oc1ccc(C(F)(F)F)cc1 [Example 127, N-[3-(5-{1-ethyl-5-[4-(trifluoromethyl)phenoxy]-1H-pyrazol-3-yl}pyridine-3-yl)oxetan-3-yl]-N′-(2,2,2-trifluoroethyl)sulfamide] | < 200 | < 200 |
| CCn1nc(-c2cccc(C3(NS(=O)(=O)NCC(F)(F)F)COC3)c2)cc1Oc1ccc(C#N)cc1 [Example 129, N-(3-{3-[5-(4-cyanophenoxy)-1-ethyl-1H-pyrazol-3-yl]phenyl}oxetane-3-yl)-N′-(2,2,2-trifluoroethyl)sulfamide] | < 200 | < 200 |
| CNC(=O)Cn1nc(-c2cccc(C3(NS(=O)(=O)CC(F)(F)F)COC3)c2)cc1Oc1ccc(C(F)(F)F)cc1 [Example 132, 2-[5-(4-trifluoromethylphenoxy)-3-(3-{3-[(2,2,2-trifluoroethylsulfonyl)amino]oxetan-3-yl}phenyl)-1H-pyrazol-1-yl]-N-methylacetamide] | < 200 | < 200 |
| O=C(Cn1nc(-c2cccc(C3(NS(=O)(=O)CC(F)(F)F)COC3)c2)cc1Oc1ccc(C(F)(F)F)cc1)N1CCOCC1 [Example 133, N-[3-(3-{5-(4-trifluoromethylphenoxy)-1-[2-oxo-2-(morpholin-4-yl)ethyl]-1H-pyrazol-3-yl}phenyl)oxetan-3-yl]- ,2,2,2-trifluoroethanesulfonamide] | < 200 | < 200 |
| Cc1nnc(Cn2nc(-c3cccc(C4(NS(=O)(=O)CC(F)(F)F)COC4)c3)cc2Oc2ccc(C(F)(F)F)cc2)o1 [Example 136, N-(3-{3-[5-(4-trifluoromethylphenoxy)-1-(5-methyl-1,3,4-oxadiazol-2-ylmethyl)-1H-pyrazol-3-yl]phenyl}oxetan-3-yl)-2,2,2-trifluoroethanesulfonamide] | < 200 | < 200 |
| Cc1cc(Cn2nc(-c3cccc(C4(NS(=O)(=O)CC(F)(F)F)COC4)c3)cc2Oc2ccc(C(F)(F)F)cc2)on1 [Example 137, N-(3-{3-[5-(4-trifluoromethylphenoxy)-1-(5-methyl-1,2-isoxazol-3-ylmethyl)-1H-pyrazol-3-yl]phenyl}oxetan-3-yl)-2,2,2-trifluoroethanesulfonamide] | < 200 | < 200 |
| O=S(=O)(CC(F)(F)F)NC1(c2cccc(-c3cc(Oc4ccc(C(F)(F)F)cc4)n(CC4CCCO4)n3)c2)COC1 (centres unmarked) [Example 138, N-(3-{3-[5-(4-trifluoromethylphenoxy)-1-(tetrahydrofuran-2-ylmethyl)-1H-pyrazol-3-yl]phenyl}oxetan-3-yl)-2,2,2-trifluoroethanesulfonamide] | < 200 | < 200 |
| O=S(=O)(CC(F)(F)F)NC1(c2cccc(-c3cc(Oc4ccc(C(F)(F)F)cc4)n(CC4CCOCC4)n3)c2)COC1 [Example 139, N-(3-{3-[5-(4-trifluoromethylphenoxy)-1-(tetrahydro-2H-pyran-4-ylmethyl)-1H-pyrazol-3-yl]phenyl}oxetan-3-yl)-2,2,2-trifluoroethanesulfonamide] | < 200 | < 200 |

Other lines, results leading:

| IC50 [1] [nM] | IC50 [2] [nM] | Compound |
| --- | --- | --- |
| < 200 | < 200 | CCn1nc(Oc2ccc(C(F)(F)F)cc2)c(Br)c1-c1cccc(C(C)(C)NS(=O)(=O)CC(F)(F)F)c1 [Example 114, N-[2-(3-{4-Bromo-1-ethyl-3-[4-(trifluoromethyl)phenoxy]-1H-pyrazol-5-yl}phenyl)propan-2-yl]-2,2,2-trifluoroethanesulfonamide] |
| < 200 | < 200 | CCn1nc(-c2cccc(C(C)(C)NS(=O)(=O)CC(F)(F)F)c2)c(C=O)c1Oc1ccc(C(F)(F)F)cc1 [Example 118, N-[2-(3-{1-ethyl-4-formyl-5-[4-(trifluoromethyl)phenoxy]-1H-pyrazol-3-yl}phenyl)propan-2-yl]-2,2,2-trifluoroethanesulfonamide] |
| < 200 | < 200 | CCn1nc(Oc2ccc(C(F)(F)F)cc2)cc1-c1ccc2c(c1)CC(NS(=O)(=O)NCC(F)(F)F)C2 (centres unmarked) [Example 120, (N-[5-(1-Ethyl-3-(4-trifluoromethylphenoxy)-1H-pyrazol-5-yl)-2,3-dihydro-1H-inden-2-yl]-N′-(2,2,2-trifluoroethyl)sulfuric diamide)] |
| < 200 | < 200 | CCn1nc(-c2ccc3c(c2)CC(NS(=O)(=O)NCC(F)(F)F)C3)cc1Oc1ccc(C(F)(F)F)cc1 (centres unmarked) [Example 121] |
| < 200 | < 200 | CCn1nc(Oc2ccc(C(F)(F)F)cn2)cc1-c1ccc2c(c1)CC(NS(=O)(=O)NCC(F)(F)F)C2 (centres unmarked) [Example 122, N-[5-(1-ethyl-3-{[5-(trifluoromethyl)pyridin-2-yl]oxy}-1H-pyrazol-5-yl)-2,3-dihydro-1H-inden-2-yl]-N′-(2,2,2-trifluoroethyl)sulfamide] |
| < 200 | < 200 | CCCNS(=O)(=O)NC1Cc2ccc(-c3cc(Oc4ccc(C(F)(F)F)cc4)nn3CC)cc2C1 (centres unmarked) [Example 123, N-(5-{1-ethyl-3-[4-(trifluoromethyl)phenoxy]-1H-pyrazol-5-yl}-2,3-dihydro-1H-inden-2-yl)-N′-propylsulfamide] |
| < 200 | < 200 | CCn1nc(Oc2ccc(C(F)(F)F)cc2)cc1-c1ccc2c(c1)CC(NS(=O)(=O)NCC(C)C)C2 (centres unmarked) [Example 124, N-(5-{1-ethyl-3-[4-(trifluoromethyl)phenoxy]-1H-pyrazol-5-yl}-2,3-dihydro-1H-inden-2-yl)-N′-isobutylsulfamide] |
| < 200 | < 200 | CCn1nc(Oc2ccc(C(F)(F)F)cc2)cc1-c1ccc2c(c1)CC(NS(=O)(=O)NC1CCC1)C2 (centres unmarked) [Example 125, N-cyclobutyl-N′-(5-{1-ethyl-3-[4-(trifluoromethyl)phenoxy]-1H-pyrazol-5-yl}-2,3-dihydro-1H-inden-2-yl)sulfamide] |
| < 200 | < 200 | CCn1nc(-c2cccc(C3(NS(=O)(=O)CC(F)(F)F)COC3)c2)cc1Oc1ccc(C#N)cc1 [Example 128] |
| < 200 | < 200 | CCn1nc(-c2cccc(C3(NS(=O)(=O)NC4CC(F)(F)C4)COC3)c2)cc1Oc1ccc(C#N)cc1 [Example 130, N-(3-{3-[5-(4-cyanophenoxy)-1-ethyl-1H-pyrazol-3-yl]phenyl}oxetane-3-yl)-N′-(3,3-difluorocyclobutyl)sulfamide] |
| < 200 | < 200 | CN(C)C(=O)Cn1nc(-c2cccc(C3(NS(=O)(=O)CC(F)(F)F)COC3)c2)cc1Oc1ccc(C(F)(F)F)cc1 [Example 131, 2-[5-(4-trifluoromethylphenoxy)-3-(3-{3-[(2,2,2-trifluoroethylsulfonyl)amino]oxetan-3-yl}phenyl)-1H-pyrazol-1-yl]-N,N-dimethylacetamide] |
| < 200 | < 200 | O=S(=O)(CC(F)(F)F)NC1(c2cccc(-c3cc(Oc4ccc(C(F)(F)F)cc4)n(Cc4cocn4)n3)c2)COC1 [Example 134, N-(3-{3-[5-(4-trifluoromethylphenoxy)-1-(1,3-oxazol-4-ylmethyl)-1H-pyrazol-3-yl]phenyl}oxetan-3-yl)-2,2,2-trifluoroethanesulfonamide] |
| < 200 | < 200 | O=S(=O)(CC(F)(F)F)NC1(c2cccc(-c3cc(Oc4ccc(C(F)(F)F)cc4)nn3Cc3cocn3)c2)COC1 [Example 135, N-(3-{3-[3-(4-trifluoromethylphenoxy)-1-(1,3-oxazol-4-ylmethyl)-1H-pyrazol-5-yl]phenyl}oxetan-3-yl)-2,2,2-trifluoroethanesulfonamide] |
| < 200 | < 200 | O=S(=O)(CC(F)(F)F)NC1(c2cccc(-c3cc(Oc4ccc(C(F)(F)F)cc4)n(CC4CCCCO4)n3)c2)COC1 (centres unmarked) [Example 140] |

Reference: patent US8871796B2, “Diaryl ether derivatives as notch sparing gamma secretase inhibitors” (Merck Sharp & Dohme Corp., priority 2009, dated 2014)
